Measurements: PMC12951562, “SH2scan: Mapping SH2 Domain-Ligand Binding Selectivity for Inhibitors and Degraders” (Journal of Medicinal Chemistry, 2026)
Where two headings read alike, the source gives them in different places. Non-standard residues stand in square brackets, D forms with d. Residues, ends and D or L forms follow the SMILES beside them. *: point of attachment. pY = N[C@@H](Cc1ccc(OP(=O)(O)O)cc1)C(=O)O; Caffeoyl = O=C(/C=C/c1ccc(O)c(O)c1)*

Columns and labels:
Experiment in all cases: biochemical
Type in all cases: binding
[1] = biological target: T1, CISH (Homo sapiens, UniProt Q9NSE2); conditions: for remaining activity at 10 µM: read-out: percent of DMSO vehicle control
T1 construct: the DNA-tagged SH2 domain concentrations used in this study were <0.1 nM; made in house; host or cells: HEK293 (transient transfection; unpurified extract)
T1 sequence (Q9NSE2 82-163 limits assumed): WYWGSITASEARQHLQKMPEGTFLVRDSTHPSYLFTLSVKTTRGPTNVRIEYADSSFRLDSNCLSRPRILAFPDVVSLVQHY

[2] = biological target: T2, PTPN11(SH2dom.C-term.) (Homo sapiens, UniProt Q06124); conditions: for percent of DMSO vehicle control: primary screen, 10 μM
T2 construct: SH2dom.C-term. denotes SH2 domain closest to C-terminus of protein; made in house; host or cells: HEK293 (transient transfection, unpurified extract)
T2 sequence (Q06124 112-216 limits assumed): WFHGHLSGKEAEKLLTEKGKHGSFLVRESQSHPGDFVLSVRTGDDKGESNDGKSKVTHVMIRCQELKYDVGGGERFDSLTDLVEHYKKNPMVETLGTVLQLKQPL

[3] = biological target: T3, SH2D1A (Homo sapiens, UniProt O60880); conditions: for remaining activity at 10 µM: read-out: percent of DMSO vehicle control
T3 construct: made in house; host or cells: HEK293 (transient transfection), unpurified extract
T3 sequence (O60880 1-128): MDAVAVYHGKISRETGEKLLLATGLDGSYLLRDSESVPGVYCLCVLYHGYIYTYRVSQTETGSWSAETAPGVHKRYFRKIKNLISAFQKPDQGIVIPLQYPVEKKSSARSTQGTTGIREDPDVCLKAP

[4] = biological target: T4, STAT3 (Homo sapiens, UniProt P40763); conditions: for percent of DMSO vehicle control at 10 µM / remaining activity at 10 µM: read-out: percent of DMSO vehicle control
T4 construct: made in house; host or cells: HEK293 (transient transfection), unpurified extract

[5] = biological target: T5, STAT3(N567K)-nonphosphorylated (Homo sapiens, UniProt P40763, N567K); conditions: for percent of DMSO vehicle control at 10 µM / remaining activity at 10 µM: read-out: percent of DMSO vehicle control
T5 construct: made in house; host or cells: HEK293 (transient transfection), unpurified extract, dephosphorylated by endogenous phosphatases

[6] = biological target: T6, STAT3(S614R)-nonphosphorylated (Homo sapiens, UniProt P40763, S614R); conditions: for percent of DMSO vehicle control at 10 µM / remaining activity at 10 µM: read-out: percent of DMSO vehicle control
T6 construct: made in house; host or cells: HEK293 (transient transfection), unpurified extract, dephosphorylated by endogenous phosphatases

[7] = biological target: T7, STAT3(Y640F)-nonphosphorylated (Homo sapiens, UniProt P40763, Y640F); conditions: for percent of DMSO vehicle control at 10 µM / remaining activity at 10 µM: read-out: percent of DMSO vehicle control
T7 construct: made in house; host or cells: HEK293 (transient transfection), unpurified extract, dephosphorylated by endogenous phosphatases

[8] = biological target: T8, STAT5A (Homo sapiens, UniProt P42229); conditions: for percent of DMSO vehicle control at 10 µM / remaining activity at 10 µM: read-out: percent of DMSO vehicle control
T8 construct: made in house; host or cells: HEK293 (transient transfection), unpurified extract
T8 sequence (P42229 1-794): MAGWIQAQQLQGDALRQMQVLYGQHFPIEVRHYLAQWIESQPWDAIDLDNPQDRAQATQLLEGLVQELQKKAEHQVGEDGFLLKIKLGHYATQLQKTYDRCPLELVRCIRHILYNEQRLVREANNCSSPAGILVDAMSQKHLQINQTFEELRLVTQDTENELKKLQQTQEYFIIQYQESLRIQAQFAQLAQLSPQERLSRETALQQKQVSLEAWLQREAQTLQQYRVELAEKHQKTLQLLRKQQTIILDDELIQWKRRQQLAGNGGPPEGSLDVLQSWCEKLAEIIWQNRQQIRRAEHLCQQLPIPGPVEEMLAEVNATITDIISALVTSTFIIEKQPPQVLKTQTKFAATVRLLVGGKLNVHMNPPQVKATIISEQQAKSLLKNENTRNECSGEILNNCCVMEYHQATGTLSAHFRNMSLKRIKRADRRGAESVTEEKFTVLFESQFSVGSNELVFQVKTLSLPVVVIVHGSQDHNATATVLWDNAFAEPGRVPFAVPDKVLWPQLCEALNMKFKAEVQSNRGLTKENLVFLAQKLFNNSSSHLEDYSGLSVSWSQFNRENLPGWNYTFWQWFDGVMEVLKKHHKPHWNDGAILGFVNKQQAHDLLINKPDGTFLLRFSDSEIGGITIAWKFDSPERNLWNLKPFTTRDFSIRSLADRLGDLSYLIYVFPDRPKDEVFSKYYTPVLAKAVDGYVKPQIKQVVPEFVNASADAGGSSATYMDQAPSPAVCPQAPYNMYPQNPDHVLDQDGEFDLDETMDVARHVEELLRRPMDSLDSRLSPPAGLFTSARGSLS

SMILES | percent of DMSO vehicle control [2] [%] | remaining activity at 10 µM [1] [%] | remaining activity at 10 µM [3] [%] | percent of DMSO vehicle control at 10 µM [4] [%] | percent of DMSO vehicle control at 10 µM [5] [%] | percent of DMSO vehicle control at 10 µM [6] [%] | percent of DMSO vehicle control at 10 µM [7] [%] | percent of DMSO vehicle control at 10 µM [8] [%] | Kd ([1]; dose-response, read-out: KD) [nM] | remaining activity at 10 µM ([1]; primary screen, 10 μM) [%] | remaining activity at 10 µM ([3]; primary screen, 10 μM) [%] | remaining activity at 10 µM ([4]; primary screen, 10 μM) [%] | remaining activity at 10 µM ([5]; primary screen, 10 μM) [%] | remaining activity at 10 µM ([6]; primary screen, 10 μM) [%] | remaining activity at 10 µM ([7]; primary screen, 10 μM) [%] | remaining activity at 10 µM ([8]; primary screen, 10 μM) [%] | further results
CC[C@H](C)[C@H](NC(=O)[C@H](CCC(=O)O)NC(=O)[C@H](CCC(=O)O)NC(=O)[C@H](Cc1ccc(OP(=O)(O)O)cc1)NC(C)=O)C(=O)N[C@@H](CCC(=O)O)C(N)=O [Ac-pYEEIE-NH2] (Ac-[pY]EEIE-NH2) | 133.6 | – | – | – | – | – | – | – | – | – | – | – | – | – | – | – | percent of DMSO vehicle control ([1]; primary screen, 10 μM): 131.9%; percent of DMSO vehicle control ([3]; primary screen, 10 μM): 93.4%; percent of DMSO vehicle control ([4]; primary screen, 10 μM): 151.4%; percent of DMSO vehicle control ([5]; primary screen, 10 μM): 94.9±0.8%; percent of DMSO vehicle control ([6]; primary screen, 10 μM): 96.3±8.9%; percent of DMSO vehicle control ([7]; primary screen, 10 μM): 156.0%; percent of DMSO vehicle control ([8]; primary screen, 10 μM): 94.4±4.9%
CC(=O)N[C@@H](Cc1ccc(CP(=O)(O)O)cc1)C(=O)NC1(C(=O)N[C@@H](CC(N)=O)C(=O)NCCCc2c(O)ccc3ccccc23)CCCCC1 [CGP78850] | 127.5±18.4 | 117 ± 15.1 | 63.8 ± 17.1 | 80.9 ± 6.4 | 78.3 ± 2 | 82.4 ± 3.2 | 118 ± 3.3 | 84.9 ± 21 | – | – | – | – | – | – | – | – | –
CC[C@H](C)[C@H](NC(=O)[C@H](CCC(=O)O)NC(=O)[C@H](CCC(=O)O)NC(=O)[C@H](Cc1ccc(OP(=O)(O)O)cc1)NC(=O)/C=C/c1ccc(O)c(O)c1)C(=O)N[C@@H](CCC(=O)O)C(=O)O [Caffeic acid-pYEEIE] (Caffeoyl-[pY]EEIE-OH) | 72.6±1.1 | 4.9 ± 6.9 | 79.8 ± 21.3 | 102 ± 22.8 | 91 ± 2.3 | 81.4 ± 6.7 | 131 ± 28.4 | 6.2 ± 0.4 | – | – | – | – | – | – | – | – | Kd [1]: 430 ± 980 nM; Kd [8]: 4020 ± 1500 nM
O=C(CCl)Nc1cccc(CNC(=O)[C@H](Cc2ccc(OP(=O)(O)O)cc2)NC(=O)Cc2ccc(F)cc2)c1 [MN551] | 125.6 | – | – | – | – | – | – | – | 46 | 3.2 ± 4.3 | 77.9 ± 2.2 | 67.8 | 86.5 ± 6.2 | 95.7 ± 8.1 | 49 ± 5.7 | 39 ± 0.8 | –
NC(=O)CC[C@H](NC(=O)[C@@H]1CC[C@@H]2CCN(C(=O)CCCCCC#Cc3cccc4c3CN(C3CCC(=O)NC3=O)C4=O)C[C@H](NC(=O)c3cc4cc(C(F)(F)P(=O)(O)O)ccc4[nH]3)C(=O)N21)C(=O)NC(c1ccccc1)c1ccccc1 (stereo partly drawn) [SD-36] | 104.4±9.8 | 42.8 ± 5.7 | 354 | 0.1 ± 0.1 | 0.1 | 1.6 | 0.2 ± 0.6 | 3.4 ± 0.4 | – | – | – | – | – | – | – | – | Kd ([4]; dose-response): 21 nM; Kd ([5]; dose-response): 30 ± 11 nM; Kd ([6]; dose-response): 9.7 ± 4.1 nM; Kd ([7]; dose-response): 80 ± 27 nM; Kd ([8]; dose-response): 1600 ± 670 nM
CC(=O)N1CC[C@H]2CC[C@@H](C(=O)N[C@@H](CCC(N)=O)C(=O)NC(c3ccccc3)c3ccccc3)N2C(=O)[C@@H](NC(=O)c2cc3cc(C(F)(F)P(=O)(O)O)ccc3[nH]2)C1 [SI-109] | 136.9 | 102 | 87.6 | 0.4 ± 0.1 | 0.2 | 0.1 | 5.8 ± 3.7 | 101 | – | – | – | – | – | – | – | – | Kd [4]: 15 nM; Kd [5]: 12 ± 1.8 nM; Kd [6]: 5 ± 0.56 nM; Kd [7]: 78 ± 44 nM; Kd [8]: 7030 ± 2200 nM
C/C(=C\C(=O)N[C@H](C(=O)N1CCC[C@H]1C(=O)N(c1ccccc1)c1ccc(I)cc1)C(C)(C)C)c1ccc(OP(=O)(O)O)cc1 [STAT6-IN-1] | 2.1±0.9 | – | – | – | – | – | – | – | 3600 ± 640 | 1.6 ± 2.3 | 68.7 ± 3.5 | 0 | 0 | 0 | 0 | 0 | Kd ([2]; dose-response, read-out: KD): 1060 ± 350 nM; Kd ([4]; dose-response, read-out: KD): 180 ± 0.01 nM; Kd ([5]; dose-response, read-out: KD): 190 ± 107 nM; Kd ([6]; dose-response, read-out: KD): 88 ± 31 nM; Kd ([7]; dose-response, read-out: KD): 102 ± 44 nM; Kd ([8]; dose-response, read-out: KD): 9.1 ± 4.3 nM
CC(C)(C)[C@H](NC(=O)/C=C/c1ccc(OP(=O)(O)O)cc1)C(=O)N1CCC[C@H]1C(=O)N(c1ccccc1)c1ccc(I)cc1 [STAT6-IN-3] | 37.9±11.0 | – | – | – | – | – | – | – | 4200 ± 1100 | 26.8 ± 11.8 | 68.5 ± 43.7 | 0.7 ± 0.2 | 0.2 ± 0.3 | 0.1 ± 0.1 | 2.4 ± 6.1 | 0 | Kd ([4]; dose-response, read-out: KD): 370 ± 162 nM; Kd ([5]; dose-response, read-out: KD): 500 ± 200 nM; Kd ([6]; dose-response, read-out: KD): 140 ± 71 nM; Kd ([7]; dose-response, read-out: KD): 95 ± 40 nM; Kd ([8]; dose-response, read-out: KD): 46 ± 19 nM
O=C(COc1ccc2cc(C(=O)Nc3ccccc3)ccc2c1)NCc1ccc(OP(=O)(O)O)c(OP(=O)(O)O)c1 [Stafib-1] | 99.1±12.9 | – | – | – | – | – | – | – | 3900 ± 8500 | 1.7 ± 2.3 | 87.8 ± 37.4 | 66.9 ± 10 | 97.5 ± 16.8 | 87.4 ± 4.6 | 75.3 ± 26 | 22 ± 26.6 | –
